The conditions of series [1]: 1 h.
Protocol: (§1) An arbitrary amount of a photopolymerization initiator is weighed in a sample bottle at 23° C., and a condensable gas cooled to 5° C. to a liquid state is gradually added to the bottle until the photopolymerization initiator is completely dissolved. The sample bottle is capped and is left to stand in a refrigerator at 5° C. for 1 hour. The sample bottle is then subjected to visual observation whether the photopolymerization initiator is completely dissolved. The weight of the weighed photopolymerization initiator is divided by the sum of the weight of the photopolymerization initiator and the weight of the condensable gas in a liquid state, and the resulting quotient is expressed in percentage as the saturated solubility.
(§2) The sample bottle was capped and was left to stand in a refrigerator at 5° C. for 1 hour. The sample bottle was then visually observed.
For series [2] the following is noted: composition mainly composed of an acrylic monomer; cited from earlier work.
Series [3] is described as follows: Saturated solubility in liquid condensable gas (PFP), visual observation. Particulars: for Saturated solubility: to PFP, liquid state at 5° C. and 1 atm.
Protocol: as §1, §2

Results on five compounds are retold here after patent publication US10182500B2, “Curable composition for photoimprint, cured product, and method of producing film having pattern, optical component, circuit board, or electronic component using the composition” (CANON KABUSHIKI KAISHA, priority 2014, dated 2019).

Read-outs that look alike come from different tables or passages of the source. Bounds are passed on as bounds.

Take `Cc1cc(C)c(C(=O)P(=O)(c2ccccc2)c2ccccc2)c(C)c1` [Formula (1), 2,4,6-trimethylbenzoyldiphenylphosphine oxide]: in series [1], the Saturated solubility is recorded as <1.0 % by weight and the saturated solubility entry is “less than 1 % by weight”.
`FC(F)CC(F)(F)F` [1,1,1,3,3-pentafluoropropane]: the “PFP dissolved in curable composition for photoimprint” value in series [2] is given as “about 40 % by volume”.
Take `CCN(CC)c1ccc(C(=O)c2ccc(N(CC)CC)cc2)cc1` [Formula (4), 4,4′-bis(diethylamino)benzophenone]: in series [3], the Saturated solubility is reported as <1.0 % by weight.
Take `COC(OC)(C(=O)c1ccccc1)c1ccccc1` [Formula (6), benzyl dimethyl ketal]: the saturated solubility result in series [3] (at 5° C. in PFP being a liquid state at 5° C. and 1 atm) was “higher than 2.67 % by weight”.
For the compound `CC(C)c1ccc2sc3ccccc3c(=O)c2c1` [Formula (3), 2-isopropylthioxanthone], the Saturated solubility in series [3] is <1.0 % by weight.
